Assay results published in patent US12331096B2, “Binding domain mapping and compounds, compositions, complexes, methods, and kits related thereto” (GEORGE MASON RESEARCH FOUNDATION, INC., priority 2019, dated 2025).
“And” between values parts separate entries of the source, which are not always exact repeats. Identical values can stand only once. “Also recorded” adds a separate entry of the source. Like-named read-outs stand apart in the source and are kept apart here. Where a SMILES comes first, the peptide text is derived from it. Bridges are numbered along the chain shown (N, C = ends).

Columns and labels:
[1] = Solubility of azo coupling products synthesized in PBS; format: physicochemical; details: synthesized at room temperature in PBS, pH 7.4
Procedure: Dyes stocks were prepared to 1 mg/mL final concentrations. Synthesis was conducted as follows: Fast Dyes were mixed in 1× Dubelcco's PBS with an excess of coupling agent (3-fold molar concentration of coupling agent to fast dye) and vortexed. Reactions were conducted at room temperature and proceeded in the first 5 minutes of mixing with evident color change. Dye stocks were allowed to incubate at room temperature for one week prior to use. Dyes were used without further purification and were diluted prior to use in protein painting. Dye reagents were vortexed before each use, and stable for >6 months at room temperature. Reactions were monitored by reverse phase C18 TLC (mobile phase of 60% methanol, 40% water) to determine number of product bands. […] The two major product bands were separated via reverse-phase flash column chromatography conducted essentially as described previously using a 20 mm column, stationary phase of COSMOSIL C18-OPN reverse phase resin (Nacalai USA, Catalog number 37842-66), and mobile phase of 60% methanol or 30% acetonitrile. Fractions containing individual bands were identified via reverse-phase TLC and were pooled and dried. Pure samples by TLC were analyzed by NMR to confirm structure of each major product.
Two different fast dyes were used to synthesize new dye candidates. Fast Blue B was chosen to synthesize new diazo dyes, as it is structurally similar to the core of TB, while Fast Red TR was chosen to synthesize new halogenated small dyes. Four diverse coupling agents, 4-Amino-1-naphthalenesulfonic Acid or naphthionic acid, 4-Amino-5-hydroxy-2,7-naphthalenedisulfonic acid or H-acid, 7-Amino-1,3-naphthalenedisulfonic acid or Amino G Acid, and 2-napthol were chosen to evaluate the role of sulfonates on specific binding. […] The remaining 5 candidate dyes, Fast Blue B+Naphthionic Acid (FBBNA), Fast Blue B+H-acid (FBBHA), Fast Red TR+Naphthionic Acid (FRNA), Fast Red TR+H-acid (FRHA), and Fast Red TR+Amino G Acid (FRAGA), were all evaluated for their specific binding with respect to thyroglobulin (see Table 3).

[2] = target: T1, Thyroglobulin (Bos taurus, UniProt P01267); test: Specific binding of dye to thyroglobulin (gel filtration, UV-Vis); details: for Specific binding to thyroglobulin at equilibrium: Vmax of Michaelis-Menten fit, no CuSO4
T1 construct: purchased Sigma Aldrich 9010-34-8
T1 sequence (P01267 20-2769): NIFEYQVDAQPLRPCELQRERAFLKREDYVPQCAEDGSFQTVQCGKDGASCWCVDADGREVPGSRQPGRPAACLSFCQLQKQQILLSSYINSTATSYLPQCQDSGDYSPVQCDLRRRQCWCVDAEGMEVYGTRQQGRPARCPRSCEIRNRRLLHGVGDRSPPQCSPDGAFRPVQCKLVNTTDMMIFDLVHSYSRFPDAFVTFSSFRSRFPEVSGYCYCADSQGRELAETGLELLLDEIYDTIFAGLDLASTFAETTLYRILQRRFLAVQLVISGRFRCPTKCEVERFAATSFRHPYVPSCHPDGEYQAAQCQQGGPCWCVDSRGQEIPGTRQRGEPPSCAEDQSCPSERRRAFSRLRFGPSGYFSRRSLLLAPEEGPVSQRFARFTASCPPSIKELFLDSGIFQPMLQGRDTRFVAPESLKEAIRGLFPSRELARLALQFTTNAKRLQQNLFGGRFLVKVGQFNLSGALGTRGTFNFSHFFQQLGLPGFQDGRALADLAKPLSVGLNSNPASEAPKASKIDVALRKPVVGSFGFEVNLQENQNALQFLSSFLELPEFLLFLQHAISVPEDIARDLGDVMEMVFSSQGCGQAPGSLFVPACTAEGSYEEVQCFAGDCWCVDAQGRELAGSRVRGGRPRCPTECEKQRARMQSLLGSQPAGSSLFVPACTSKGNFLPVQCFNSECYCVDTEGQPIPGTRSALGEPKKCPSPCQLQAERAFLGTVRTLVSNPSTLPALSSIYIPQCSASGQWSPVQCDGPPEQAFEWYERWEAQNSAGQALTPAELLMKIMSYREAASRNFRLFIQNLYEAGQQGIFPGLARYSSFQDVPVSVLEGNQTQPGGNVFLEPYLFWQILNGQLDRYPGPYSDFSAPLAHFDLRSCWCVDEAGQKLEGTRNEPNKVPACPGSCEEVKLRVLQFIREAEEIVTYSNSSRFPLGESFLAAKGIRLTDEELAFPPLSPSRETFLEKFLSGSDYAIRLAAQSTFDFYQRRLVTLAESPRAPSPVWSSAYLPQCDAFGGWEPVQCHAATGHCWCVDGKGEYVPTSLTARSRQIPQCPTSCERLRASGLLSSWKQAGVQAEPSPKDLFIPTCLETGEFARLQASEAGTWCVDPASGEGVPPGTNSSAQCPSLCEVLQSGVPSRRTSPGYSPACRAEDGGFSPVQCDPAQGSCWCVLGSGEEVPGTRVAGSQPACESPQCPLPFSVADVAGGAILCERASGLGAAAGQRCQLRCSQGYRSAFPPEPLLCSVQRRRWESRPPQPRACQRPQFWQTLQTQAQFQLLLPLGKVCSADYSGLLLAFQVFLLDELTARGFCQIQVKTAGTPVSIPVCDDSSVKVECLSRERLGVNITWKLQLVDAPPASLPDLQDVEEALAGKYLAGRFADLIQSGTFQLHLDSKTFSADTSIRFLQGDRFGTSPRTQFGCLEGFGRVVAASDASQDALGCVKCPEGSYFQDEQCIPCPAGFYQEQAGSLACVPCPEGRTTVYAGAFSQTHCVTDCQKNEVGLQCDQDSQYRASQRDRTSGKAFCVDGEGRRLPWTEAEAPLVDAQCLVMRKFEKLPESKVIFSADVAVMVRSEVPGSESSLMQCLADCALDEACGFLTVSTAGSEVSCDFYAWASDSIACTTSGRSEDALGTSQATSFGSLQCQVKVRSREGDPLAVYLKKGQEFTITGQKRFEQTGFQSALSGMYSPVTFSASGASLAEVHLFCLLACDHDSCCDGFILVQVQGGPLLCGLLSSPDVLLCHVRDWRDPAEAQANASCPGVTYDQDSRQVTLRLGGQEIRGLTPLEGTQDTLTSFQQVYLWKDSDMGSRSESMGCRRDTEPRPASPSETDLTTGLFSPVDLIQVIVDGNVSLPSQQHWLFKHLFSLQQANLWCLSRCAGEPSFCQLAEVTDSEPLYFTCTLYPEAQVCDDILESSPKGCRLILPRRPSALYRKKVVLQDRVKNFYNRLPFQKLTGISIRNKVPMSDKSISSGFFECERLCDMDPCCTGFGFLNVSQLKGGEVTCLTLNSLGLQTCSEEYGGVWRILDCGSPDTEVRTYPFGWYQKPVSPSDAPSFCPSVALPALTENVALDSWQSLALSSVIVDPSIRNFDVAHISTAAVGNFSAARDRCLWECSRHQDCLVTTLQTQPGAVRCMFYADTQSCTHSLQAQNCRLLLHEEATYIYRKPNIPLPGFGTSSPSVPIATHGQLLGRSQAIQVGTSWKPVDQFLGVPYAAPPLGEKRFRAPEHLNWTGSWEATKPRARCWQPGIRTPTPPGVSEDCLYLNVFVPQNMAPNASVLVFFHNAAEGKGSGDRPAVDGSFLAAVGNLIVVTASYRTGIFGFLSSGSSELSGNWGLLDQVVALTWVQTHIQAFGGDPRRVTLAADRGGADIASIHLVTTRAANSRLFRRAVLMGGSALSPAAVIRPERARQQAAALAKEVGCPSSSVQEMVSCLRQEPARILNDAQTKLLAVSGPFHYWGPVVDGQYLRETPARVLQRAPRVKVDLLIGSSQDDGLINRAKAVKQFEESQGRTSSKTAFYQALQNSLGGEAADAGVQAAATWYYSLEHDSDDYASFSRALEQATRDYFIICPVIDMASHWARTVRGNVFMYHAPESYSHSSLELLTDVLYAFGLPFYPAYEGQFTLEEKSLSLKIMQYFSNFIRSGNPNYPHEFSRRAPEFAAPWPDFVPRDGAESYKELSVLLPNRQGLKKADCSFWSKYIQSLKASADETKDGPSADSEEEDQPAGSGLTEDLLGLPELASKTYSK
Procedure: (§1) To determine specific binding of each candidate dye, thyroglobulin was primarily used as a model protein, because its large surface area facilitated more molecules of dye binding per protein, and thus higher signal to noise ratios versus smaller proteins. Candidate dyes were examined on a UV-2501PC UV-Vis spectrometer to determine Amax values. Standard curves were prepared for quantification of molecules of dye; dyes were eliminated from consideration if sensitivity of detection was not greater than 10 μM in solution. Thyroglobulin (1-5 μM) was mixed with 100-fold molar excess of candidate dye dissolved in PBS and allowed to associate between 15 seconds to 2 hours at room temperature. After association, 50 μL of the dye-protein mixtures were passed through a mini Quick Spin Oligo Column (Sephadex G-25 resin, Roche) and centrifugated at 1000× g for 1 min to separate unbound dye from the protein-dye complex. The collected flow-through was examined with UV-Vis spectroscopy, and quantity of dye in the flow-through was calculated using the previously developed standard curve for the dye. Specific Binding was defined as [Paint Molecules Bound]/[Protein]. A plot of specific binding versus time was fit with the Michaelis-Menton equation in GraphPad Prism 6 as a model to determine association kinetics and maximum dye binding, where Vmax represents the maximum amount of dye molecules that bind to the protein at equilibrium. All curves are fit to data from two independent experiments. Specific binding of dye candidates to lysozyme was conducted similarly, with the change that lysozyme (2-10 μM) was mixed with 50-fold molar excess of dye candidate dissolved in PBS and allowed to associate for the indicated time points.

[3] = Peptide solubility to 1 mM stock; details: solvent additive for 1 mM stock
[4] = target: T2, Lysozyme (Gallus gallus, UniProt P00698); test: Specific binding of dye to lysozyme
T2 construct: purchased Sigma Aldrich 12650-88-3
T2 sequence (P00698 19-147): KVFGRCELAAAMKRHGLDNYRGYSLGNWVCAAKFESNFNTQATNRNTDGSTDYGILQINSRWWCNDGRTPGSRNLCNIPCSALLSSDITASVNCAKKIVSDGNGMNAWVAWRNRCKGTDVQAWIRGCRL
Procedure: as §1

[5] = target: bovine serum albumin (Bos taurus, UniProt P02769); test: Circular dichroism spectroscopy of BSA with dye, urea denaturation
Chain of bovine serum albumin (P02769 25-607): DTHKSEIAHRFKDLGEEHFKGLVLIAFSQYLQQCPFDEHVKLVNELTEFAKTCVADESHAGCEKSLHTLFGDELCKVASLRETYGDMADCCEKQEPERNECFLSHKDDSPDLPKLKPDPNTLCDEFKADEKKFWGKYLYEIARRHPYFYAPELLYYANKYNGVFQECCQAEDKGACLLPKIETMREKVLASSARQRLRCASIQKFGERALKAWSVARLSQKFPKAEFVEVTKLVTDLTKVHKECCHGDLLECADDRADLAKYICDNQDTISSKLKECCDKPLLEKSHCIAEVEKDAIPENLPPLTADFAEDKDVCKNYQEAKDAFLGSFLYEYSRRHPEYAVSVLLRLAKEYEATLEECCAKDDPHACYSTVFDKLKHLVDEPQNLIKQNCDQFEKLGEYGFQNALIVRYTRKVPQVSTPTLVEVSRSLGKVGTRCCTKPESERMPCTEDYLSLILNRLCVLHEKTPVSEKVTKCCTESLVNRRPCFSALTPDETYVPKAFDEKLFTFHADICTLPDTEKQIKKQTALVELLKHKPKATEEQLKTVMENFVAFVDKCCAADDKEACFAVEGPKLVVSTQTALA
Procedure: Circular dichroism spectroscopy was conducted using bovine serum albumin on a Jasco J-1500 CD spectrometer from 190-350 nm using a 1 mm cuvette. BSA stock solutions were prepared to 2 mg/mL from lyophilized protein in sterile-filtered 10 mM phosphate buffer, pH 7.0 and centrifuged at 16,000×g to remove particulates. Concentration was determined via A280 using an extinction coefficient of 43,824 M^−1 cm^−1 for BSA. Stocks were stored at −80° C. and diluted to the appropriate concentration in sterile-filtered MilliQ water for each experiment. Final concentration of BSA in each sample was 2 μM (0.12 mg/mL). Samples were incubated for 10 minutes with dye at a molar ratio equal to the specific binding of the molecule to the protein (i.e. 18 μM of FBBNA for 1 μM of BSA). Controls were incubated with equivolume amounts of MilliQ water in place of dye. […] Helical content of BSA spectra was determined using the online server DICHROWEB (Whitmore, L., and Wallace, B. A., “Protein secondary structure analyses from circular dichroism spectroscopy: methods and reference databases.” Biopolymers. 89, 392-400, 2008; Whitmore, L., and Wallace, B. A., “DICHROWEB, an online server for protein secondary structure analyses from circular dichroism spectroscopic data.” Nucleic Acids Res. 32, W668-673, 2004) to confirm native structure.

With COc1cc(-c2ccc(N=Nc3c(O)ccc4ccccc34)c(OC)c2)ccc1N=Nc1c(O)ccc2ccccc12 [FBB2N] as the molecule, how does the “Solubility of dye product” value [1] read?
Its value is “FBB2N: Dark Blue Pigment Insoluble”.

Which “Solubility of dye product” value [1] does the source give for Cc1cc(Cl)ccc1N=Nc1c(O)ccc2ccccc12 [FR2N] here?
The value was “FR2N: Bright Orange Pigment Insoluble”.

What does the source list for Cc1cc(Cl)ccc1N=Nc1cc(S(=O)(=O)O)c2ccccc2c1N [FRNA]?
Binding to thyroglobulin (in words) [2]: None of the Fast Red TR-based dyes including FRNA, FRHA, and FRAGA showed any significant binding; Specific binding to thyroglobulin ([2]; candidate dyes, Tables 3 and 4): No binding; Solubility of dye product [1]: Soluble

Which “Solubility (to 1 mM)” value [3] does the source give for CC[C@H](C)[C@H](NC(=O)[C@H](CCSC)NC(=O)[C@H](CS)NC(=O)[C@H](CCCNC(=N)N)NC(=O)[C@@H](N)Cc1ccc(O)cc1)C(=O)N[C@@H](CO)C(=O)N[C@@H](Cc1ccc(O)cc1)C(=O)NCC(=O)NCC(=O)N[C@@H](C)C(=O)N[C@@H](CC(=O)O)C(=O)N[C@@H](Cc1ccc(O)cc1)C(=O)N[C@@H](CCCCN)C(=O)N[C@@H](CCCNC(=N)N)C(=O)N[C@H](C(=O)N[C@H](C(=O)N[C@H](C(=O)O)C(C)C)[C@@H](C)O)[C@@H](C)CC [Peptide 1] here?
The value was 60% CH3COOH, and 14% CH3CN.

With CC[C@H](C)[C@@H]1NC(=O)[C@H](CCSC)NC(=O)[C@H](C)NC(=O)[C@H](CCCNC(=N)N)NC(=O)[C@H](Cc2ccc(O)cc2)NC(=O)[C@@H](N)CSSC[C@@H](C(=O)O)NC(=O)[C@H]([C@@H](C)O)NC(=O)[C@H]([C@@H](C)CC)NC(=O)[C@H](CCCNC(=N)N)NC(=O)[C@H](CCCCN)NC(=O)[C@H](Cc2ccc(O)cc2)NC(=O)[C@H](CC(=O)O)NC(=O)[C@H](C)NC(=O)CNC(=O)CNC(=O)[C@H](Cc2ccc(O)cc2)NC(=O)[C@H](CO)NC1=O [Peptide 2] (H-CYRAMISYGGADYKRITC-OH; disulfide 1-18) as the molecule, how does the “Solubility (to 1 mM)” value [3] read?
Its value is 40% CH3COOH.

Which “Binding to thyroglobulin (in words)” value [2] does the source give for Cc1cc(-c2ccc(/N=N/c3c(S(=O)(=O)O)cc4cc(S(=O)(=O)O)cc(N)c4c3O)c(C)c2)ccc1/N=N/c1c(S(=O)(=O)O)cc2cc(S(=O)(=O)O)cc(N)c2c1O [TB] here?
The value was “least specific binding”.

And the “Specific binding to thyroglobulin at equilibrium” value [2]?
Its value is 3 molecules.

And the “Binding to lysozyme (in words)” value [4]?
The value was “unable to bind”.

What about the “Binding to lysozyme (in words)” value ([4]; listed as Trypan Blue) of the same molecule?
The value was “not to lysozyme”.

Which “Specific binding to thyroglobulin at equilibrium” value [2] does the source give for “sodium 4-(4-(benzyl-et-amino)-ph-azo)-2,5-di-cl-benzenesulphonate [AO50]” here?
The value was 15 molecules.

What about the “Binding to lysozyme (in words)” value [4] of the same molecule?
The value was “able to bind”.

What about the “Specific binding to lysozyme at equilibrium” value ([4]; Vmax of Michaelis-Menten fit) of the same molecule?
Its value is 1 molecule.

And the “Effect of dye on native secondary structure of BSA (CD)” value ([5]; 10 min incubation with dye)?
Its value is “does not change”.

What about the “Denaturation of BSA by urea in the presence of dye (CD)” value ([5]; urea 2M, 4M, 6M (FBBNA), 4M urea (AO50, combination)) of the same molecule?
The value was “attenuated; also recorded: partially stabilize”.
